Measured values reported in PMC6958387, “Biological Evaluation of Arylsemicarbazone Derivatives as Potential Anticancer Agents” (Pharmaceuticals, 2019).

Tests used:
HEp-2 = assay: MTT cytotoxicity, 72 h; type: cell-based, human; conditions: Homo sapiens, HEp-2, 72 h of incubation
Experimental: (§1) The cytotoxicity assessment was performed against three human cancer cell lines in suspension (K562, HL-60 and MOLT-4) and four adhered (HEp-2, NCI-H292, HT-29 and MCF-7).
(§2) The cells were obtained from the Cell Bank of Rio de Janeiro and maintained in the Laboratory of Cell Culture of the Department of Antibiotics of the Federal University of Pernambuco. The lines K562 (myeloblastic leukaemia), HL-60 (promyelocytic leukemia) and MOLT-4 (lymphoblastic leukemia) were cultured in RPMI 1640 medium and the lines HEp-2 (larynx carcinoma), NCI-H292 (lung carcinoma), HT-29 (colon adenocarcinoma) and MCF-7 (breast adenocarcinoma) were cultured in DMEM medium, supplemented with 10% fetal bovine serum, 2 mM glutamine, 100 U/mL penicillin and 100 μg/mL streptomycin (Gibco™ Life Technologies), at 37 °C and 5% CO2.
(§3) The evaluation of the cytotoxicity of the compounds was performed by the method of 3-(4,5-dimethyl-2-thiazolyl)-2,5-diphenyl-2H-tetrazolium bromide (MTT) (Sigma Aldrich Co., St. Louis, MO, USA). To perform the assay the cells were seeded in 96-well plates at the following concentrations: HL-60 and K562 (0.3 × 10^6 cells/mL); MOLT-4 and PBMC (10^6 cells/mL); NCI-H292, HT-29, HEp-2 e MCF-7 (10^5 cells/mL). Briefly, the compounds previously dissolved in DMSO (dimethylsulfoxide, Vetec, São Paulo, Brazil), were diluted in medium and added to each well at the desired concentrations. For the calculation of the concentration that inhibits 50% of cell growth (IC50) the compounds were serially diluted to obtain the final concentrations between 0.19–25 μg/mL. Doxorubicin was used as the standard in the concentration range between (0.078–10 μg/mL). After 72 h of contact of the cells with the compounds, it was added to each well 25 μL of MTT solution (5 mg/mL). Plates were left for another 3 h in incubator at 37 °C and at the end of that period the supernatant was aspirated. To perform the reading, 100 μL of DMSO was added in each well for the dissolution of the formazan crystals. The amount of formazan was measured by reading the plate at 560 nm absorbance. The IC50 was calculated from the nonlinear regression in the Prisma 7.0 software (GraphPad, San Diego, CA, USA). Each sample was tested in triplicate in three independent experiments.

HL-60 = assay: MTT cytotoxicity, 72 h; type: cell-based, human; conditions: Homo sapiens, HL-60; MTT, 72 h of incubation
Experimental: as §1, §2, §3

HT-29 = assay: MTT cytotoxicity, 72 h; type: cell-based, human; conditions: Homo sapiens, HT-29, 72 h of incubation
Experimental: as §1, §2, §3

K562 = assay: MTT cytotoxicity, 72 h; type: cell-based, human; conditions: Homo sapiens, K562, 72 h of incubation
Experimental: as §1, §2, §3

MCF-7 = assay: MTT cytotoxicity, 72 h; type: cell-based, human; conditions: Homo sapiens, MCF7, 72 h of incubation
Experimental: as §1, §2, §3

MOLT-4 = assay: MTT cytotoxicity, 72 h; type: cell-based, human; conditions: Homo sapiens, MOLT-4, 72 h of incubation
Experimental: as §1, §2, §3

NCI-H292 = assay: MTT cytotoxicity, 72 h; type: cell-based, human; conditions: Homo sapiens, NCI-H292, 72 h of incubation
Experimental: as §1, §2, §3

[1] = test system: Peripheral Blood Mononuclear Cells (PBMCs); assay: MTT cytotoxicity in normal cells, 72 h; type: cell-based, human; conditions: Homo sapiens, PBMC, 72 h of incubation
Experimental: In order to evaluate the cytotoxic potential in normal cells, all the derivatives were tested against Peripheral Blood Mononuclear Cells (PBMCs) and the most promising compounds were again compounds 3c and 4a, which offered more selectivity against the cancer cells.
Mononuclear cells were obtained from the peripheral blood of healthy volunteers by heparin tube collection and isolated by Ficoll-Histopaque gradient centrifugation. After centrifugation, the cells were harvested, washed and resuspended in RPMI 1640 medium supplemented with 20% fetal bovine serum, 2 mM glutamine, 100 U/mL penicillin and 100 μg/mL streptomycin (Gibco™ Life Technologies, Waltham, MA, USA). The phytohemagglutinin mitogen 2% was also added into the culture medium. After that, using the neubauer chamber, the cells were counted and plated in a 96-well plate at a concentration of 10^6 cells/mL and then were maintained for overnight under incubation at 37 °C and 5% CO2 [65].
as §3

[2] = test system: K562, HL-60, MOLT-4, HEp-2, NCI-H292, HT-29 and MCF-7 tumor cell lines; assay: Cytotoxic screening against the panel of tumor cell lines (MTT); type: cell-based, human; conditions: result in words
Experimental: as §1, §2
as §3, with “Plates were left for another 3 h in incubator at 37 °C and at the end of that period the supernatant was aspirated.” left out, “Each sample was tested in triplicate in three independent experiments.” left out

CDK2/CyclinA = CDK2/CyclinA (Homo sapiens, UniProt P24941); assay: Kinase inhibition assay (ADP-Glo); type: biochemical; conditions: 10 µM ATP
Experimental: HsCDK2/CyclinA (human, cyclin-dependent kinase-2, kindly provided by Dr. A. Echalier-Glazer, Leicester, UK) was assayed in buffer A with 0.8 µg/µL of histone H1 as substrate.

CDK5/p25 = molecular target: T1, CDK5/p25 (Homo sapiens, UniProt Q00535); assay: Kinase inhibition assay (ADP-Glo); type: biochemical; conditions: 10 µM ATP
T1 construct: made in house; host or cells: bacteria
Experimental: HsCDK5/p25 (human, recombinant, expressed in bacteria) was assayed in buffer A, with 0.8 µg/µL of histone H1 as substrate.

HASPIN = molecular target: T2, HASPIN (Homo sapiens, UniProt Q8TF76); assay: Kinase inhibition assay (ADP-Glo); type: biochemical; conditions: 10 µM ATP
T2 construct: kinase domain, amino acids 470 to 798; made in house; host or cells: bacteria
T2 sequence (Q8TF76 470-798): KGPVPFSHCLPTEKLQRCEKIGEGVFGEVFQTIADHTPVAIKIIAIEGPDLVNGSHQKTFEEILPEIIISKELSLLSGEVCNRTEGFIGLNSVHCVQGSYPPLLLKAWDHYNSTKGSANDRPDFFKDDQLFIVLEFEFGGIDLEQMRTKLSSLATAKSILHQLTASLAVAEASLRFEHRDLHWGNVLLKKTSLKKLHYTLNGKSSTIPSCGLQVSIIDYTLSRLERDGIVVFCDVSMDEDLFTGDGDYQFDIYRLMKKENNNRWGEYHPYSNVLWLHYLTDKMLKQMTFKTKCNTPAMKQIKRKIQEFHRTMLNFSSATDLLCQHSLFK
Experimental: HsHASPIN (human, kinase domain, amino acids 470 to 798, recombinant, expressed in bacteria) was assayed in buffer A with 0.007 µg/µL of Histone H3 (1-21) peptide ([…]) as substrate;

PIM1 = molecular target: T3, PIM1 (Homo sapiens, UniProt P11309); assay: Kinase inhibition assay (ADP-Glo); type: biochemical; conditions: 10 µM ATP
T3 construct: made in house; host or cells: bacteria
Experimental: HsPIM1 (human proto-oncogene, recombinant, expressed in bacteria) was assayed in buffer B with 0.8 µg/µL of histone H1 (Sigma #H5505) as substrate.

CLK1 = molecular target: T4, CLK1 (Mus musculus, UniProt P22518); assay: Kinase inhibition assay (ADP-Glo); type: biochemical; conditions: 10 µM ATP
T4 construct: made in house; host or cells: bacteria
Experimental: MmCLK1 (from Mus musculus, recombinant, expressed in bacteria) was assayed in buffer A with 0.027μg/µL of the following peptide: GRSRSRSRSRSR as substrate.

DYRK1A = molecular target: T5, DYRK1A (Rattus norvegicus, UniProt Q63470); assay: Kinase inhibition assay (ADP-Glo); type: biochemical; conditions: 10 µM ATP
T5 construct: amino acids 1 to 499 including the kinase domain; made in house; host or cells: bacteria
Experimental: RnDYRK1A (Rattus norvegicus, amino acids 1 to 499 including the kinase domain, recombinant, expressed in bacteria, DNA vector kindly provided by Dr. W. Becker, Aachen, Germany) was assayed in buffer A with 0.033 μg/µL of the following peptide: KKISGRLSPIMTEQ as substrate.

CK1δ/ε = assay: Kinase inhibition assay (ADP-Glo); type: biochemical, Sus scrofa domesticus; conditions: 10 µM ATP
Experimental: SscCK1δ/ε (Sus scrofa domesticus, casein kinase 1δ/ε, affinity purified from porcine brain) was assayed in buffer A, with 0.022 μg/μL of the following peptide: RRKHAAIGSpAYSITA (“Sp” stands for phosphorylated serine) as CK1-specific substrate.

GSK3 α/β = assay: Kinase inhibition assay (ADP-Glo); type: biochemical, Sus scrofa domesticus; conditions: 10 µM ATP
Experimental: SscGSK-3α/β (Sus scrofa domesticus, glycogen synthase kinase-3, affinity purified from porcine brain) was assayed in buffer A with 0.010 µg/µL of GS-1 peptide, a GSK-3-selective substrate ([…]pEDEEE, “Sp” stands for phosphorylated serine).

AURKB = molecular target: T6, AURKB (Homo sapiens, UniProt Q96GD4); assay: Kinase inhibition assay (ADP-Glo); type: biochemical; conditions: 10 µM ATP
T6 construct: purchased SignalChem A31-10G; host or cells: Sf9 insect cells (baculovirus)

CDK9/CyclinT = CDK9/CyclinT (Homo sapiens, UniProt P50750); assay: Kinase inhibition assay (ADP-Glo)
Experimental: The protein kinases studied were: CDK2/CyclinA, CDK5/p25, CDK9/CyclinT (cyclin-dependent kinases), HASPIN (haploid germ cell-specific nuclear protein kinase), PIM1 (PIM family kinase 1), CLK1 (cdc2-like kinase 1), DYRK1A (dual-specificity tyrosine phosphorylation regulated kinase), CK1δ/ε (casein kinase 1 isoforms), GSK3α/β (glycogen synthase kinase 3) and AURKB (aurora kinase B). Initially, all compounds were first tested at 10 μM. […] Compounds displaying more than 50% inhibition at 10 μM were next tested over a wide range of concentrations (usually 0.01–10 μM), and IC50 values were determined from the dose-response curves (Sigma-Plot).
Kinase activities were assayed in appropriate kinase buffer, with either protein or peptide as substrate in the presence of 10 µM ATP in a final volume of 6 µL using the ADP-Glo^TM assay kit (Promega, Madison, WI, USA, as described in Zegzouti et al. [66]). Controls were performed with appropriate dilutions of dimethylsulfoxide (solvent of the tested compounds).
The buffers used for kinase assays are the following: (A) 10 mM MgCl2, 1 mM EGTA, 1 mM DTT, 25 mM Tris-HCl pH 7.5, 50 µg/mL heparin; (B) 25 mM MOPS, pH 7.2, 12.5 mM -glycerolphosphate, 25 mM MgCl2, 5 mM EGTA, 2 mM EDTA, 0.25 mM DTT.

HL-60 cells [3] = assay: Mitochondrial transmembrane potential (rhodamine 123), flow cytometry; type: cell-based, human; conditions: 0.11 μM, 72 h
Experimental: In this sense, in order to evaluate if compounds 3c and 4a induce apoptosis by alterating the mitochondria transmembrane potential, this assay was performed by flow cytometry using the fluorochrome rhodamine 123, because this is able to accumulate in cells with unchanged mitochondrial transmembrane potential.
(§4) HL-60 cells (3 × 10^5) were plated in 24-well plates and treated with the compounds 3c (13 and 26 μM) and 4a (11 and 22 μM) for 72 h at 37 °C with 5% CO2. In all trials, doxorubicin was used as a positive control. After the incubation period, an aliquot of 500 μL of treated and untreated cells suspension was transferred to an Eppendorf tube and centrifuged to remove the supernatant and continue the protocol of the test. In the cell viability and annexin V assays, kits were used, ViaCount kit and guava nexin kit (Guava Technologies), respectively. The protocols performed in these tests followed the manufacturer’s instructions. For to analyze mitochondrial depolarization, rhodamine 123 fluorescent dye was used. In the assay for cell cycle analysis and DNA fragmentation propidium iodide was used. The experiments were performed on Guava EasyCyte HT (Merck-Millipore) flow cytometer, acquiring 5000 events. The data were analyzed in Guava-Soft™ software version 2.7. Three independent experiments were performed in triplicate.

HL-60 cells [4] = assay: Annexin V-FITC/7-AAD test, flow cytometry; type: cell-based, human; conditions: 0.11 μM, 72 h
Experimental: Aiming to better study the mechanism of induction of death involved in HL-60 cells after treatment with compounds 3c and 4a, a flow cytometric test was performed after double staining with annexin V-FITC/7-AAD. This assay is based on the ability of annexin V to bind with high affinity to phosphatidylserine which is translocated to the outer membrane of apoptotic cells and the 7-AAD dye binds to the DNA of cells with loss of membrane integrity. Thus, in this test it is possible to identify four distinct populations: viable cells [Annexin V(−) and 7-AAD(−)], initial apoptotic cells [Annexin V(+) and 7-AAD(−)], late apoptotic cells [Annexin V(+) and 7-AAD(+)] and dead cells [Annexin V(−) and 7-AAD (+)] [59].
as §4

T3 sequence (P11309 whole entry): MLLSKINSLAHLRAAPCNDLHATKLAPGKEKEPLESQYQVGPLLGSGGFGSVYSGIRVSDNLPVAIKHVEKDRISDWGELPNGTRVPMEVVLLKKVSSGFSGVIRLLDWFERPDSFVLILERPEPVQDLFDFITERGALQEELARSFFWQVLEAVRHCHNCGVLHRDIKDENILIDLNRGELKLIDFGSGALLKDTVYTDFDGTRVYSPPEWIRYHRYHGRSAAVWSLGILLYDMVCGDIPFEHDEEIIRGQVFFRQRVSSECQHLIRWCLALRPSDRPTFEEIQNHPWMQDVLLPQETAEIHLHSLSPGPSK
Chain of CDK9/CyclinT (P50750 whole entry): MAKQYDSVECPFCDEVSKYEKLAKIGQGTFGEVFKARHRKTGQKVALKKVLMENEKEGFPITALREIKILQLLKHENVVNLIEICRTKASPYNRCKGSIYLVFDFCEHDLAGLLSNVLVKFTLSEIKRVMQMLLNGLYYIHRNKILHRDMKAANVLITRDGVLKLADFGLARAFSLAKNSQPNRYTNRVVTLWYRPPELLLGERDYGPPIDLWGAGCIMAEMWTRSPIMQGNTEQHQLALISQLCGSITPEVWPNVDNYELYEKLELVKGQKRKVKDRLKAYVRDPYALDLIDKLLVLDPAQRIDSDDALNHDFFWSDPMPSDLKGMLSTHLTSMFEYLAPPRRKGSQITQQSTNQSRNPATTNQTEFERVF
Chain of CDK9/CyclinT (O60563 whole entry partner): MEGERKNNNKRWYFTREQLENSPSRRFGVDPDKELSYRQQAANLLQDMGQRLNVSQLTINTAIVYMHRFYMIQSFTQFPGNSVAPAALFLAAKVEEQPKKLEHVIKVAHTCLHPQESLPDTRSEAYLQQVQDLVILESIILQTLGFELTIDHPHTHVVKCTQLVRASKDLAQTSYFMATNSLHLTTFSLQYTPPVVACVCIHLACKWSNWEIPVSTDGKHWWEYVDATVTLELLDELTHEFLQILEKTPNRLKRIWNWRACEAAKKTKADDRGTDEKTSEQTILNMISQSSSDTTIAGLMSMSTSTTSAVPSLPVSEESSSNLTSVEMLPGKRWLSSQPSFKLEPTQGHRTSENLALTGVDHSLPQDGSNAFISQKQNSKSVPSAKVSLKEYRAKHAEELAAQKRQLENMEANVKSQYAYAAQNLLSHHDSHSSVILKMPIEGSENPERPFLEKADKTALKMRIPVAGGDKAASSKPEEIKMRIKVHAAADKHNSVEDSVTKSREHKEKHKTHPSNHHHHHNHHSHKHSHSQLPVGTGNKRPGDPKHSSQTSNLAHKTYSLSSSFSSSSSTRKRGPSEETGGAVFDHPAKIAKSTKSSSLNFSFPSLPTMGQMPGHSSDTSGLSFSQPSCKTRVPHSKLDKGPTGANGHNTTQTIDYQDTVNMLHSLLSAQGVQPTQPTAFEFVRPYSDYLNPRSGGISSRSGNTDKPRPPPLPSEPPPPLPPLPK
T6 sequence (Q96GD4 whole entry): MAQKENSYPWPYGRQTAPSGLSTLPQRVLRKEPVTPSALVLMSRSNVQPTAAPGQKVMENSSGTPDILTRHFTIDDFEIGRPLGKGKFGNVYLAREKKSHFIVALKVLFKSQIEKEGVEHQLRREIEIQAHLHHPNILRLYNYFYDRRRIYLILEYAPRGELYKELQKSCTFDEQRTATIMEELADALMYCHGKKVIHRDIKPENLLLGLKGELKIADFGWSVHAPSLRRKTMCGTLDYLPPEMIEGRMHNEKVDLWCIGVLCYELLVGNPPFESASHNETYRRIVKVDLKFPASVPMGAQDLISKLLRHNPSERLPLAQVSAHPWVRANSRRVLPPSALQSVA
T4 sequence (P22518 whole entry): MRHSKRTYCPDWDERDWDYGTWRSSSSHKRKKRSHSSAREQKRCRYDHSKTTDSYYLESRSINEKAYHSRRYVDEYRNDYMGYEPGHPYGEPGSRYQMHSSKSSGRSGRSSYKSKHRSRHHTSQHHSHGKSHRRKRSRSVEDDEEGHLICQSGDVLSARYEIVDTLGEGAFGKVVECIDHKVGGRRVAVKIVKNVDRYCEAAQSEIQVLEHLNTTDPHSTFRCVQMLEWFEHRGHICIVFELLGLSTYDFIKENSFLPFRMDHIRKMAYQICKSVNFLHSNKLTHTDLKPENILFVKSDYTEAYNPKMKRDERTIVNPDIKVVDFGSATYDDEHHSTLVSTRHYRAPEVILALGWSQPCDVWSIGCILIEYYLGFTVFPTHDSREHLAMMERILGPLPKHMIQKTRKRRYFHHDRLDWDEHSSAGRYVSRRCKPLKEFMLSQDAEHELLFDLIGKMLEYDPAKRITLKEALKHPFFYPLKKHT
T1 sequence (Q00535 whole entry): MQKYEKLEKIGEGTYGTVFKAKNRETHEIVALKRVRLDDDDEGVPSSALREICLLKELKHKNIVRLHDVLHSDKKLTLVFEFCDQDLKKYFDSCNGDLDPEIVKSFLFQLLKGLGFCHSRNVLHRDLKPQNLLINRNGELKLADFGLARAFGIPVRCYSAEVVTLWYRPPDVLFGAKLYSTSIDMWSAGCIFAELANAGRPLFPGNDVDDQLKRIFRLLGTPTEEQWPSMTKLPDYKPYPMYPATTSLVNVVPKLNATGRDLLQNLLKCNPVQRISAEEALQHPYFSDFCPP
T1 sequence (Q15078 99-307 partner limits assumed): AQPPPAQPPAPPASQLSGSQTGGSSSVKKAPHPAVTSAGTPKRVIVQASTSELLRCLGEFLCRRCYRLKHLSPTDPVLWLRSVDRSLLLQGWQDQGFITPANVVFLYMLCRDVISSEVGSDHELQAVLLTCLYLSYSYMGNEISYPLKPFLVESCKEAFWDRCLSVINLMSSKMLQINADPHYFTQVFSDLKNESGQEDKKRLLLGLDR

Compound | IC50 (HEp-2) | IC50 (HL-60) | IC50 (HT-29) | IC50 (K562) | IC50 (MCF-7) | IC50 (MOLT-4) | IC50 (NCI-H292) | IC50 [1] | melting point | IC50 (CDK2/CyclinA) | IC50 (CDK5/p25) | IC50 (HASPIN) | IC50 (PIM1) | IC50 (CLK1) | IC50 (DYRK1A) | IC50 (CK1δ/ε) | IC50 (GSK3 α/β) | IC50 (AURKB) | IC50 (CDK9/CyclinT) | also measured
NC(=O)N/N=C/c1ccco1 [Compound 3l, 2-Furfuraldehyde Semicarbazone] | > 100 µM | > 100 µM | > 100 µM | > 100 µM | > 100 µM | > 100 µM | > 100 µM | > 100 µM | 202 to 204 °C |  |  |  |  |  |  |  |  |  |  | antiproliferative activity against the tested cell lines [2]: inactive
NC(=O)NN=Cc1ccc(Cl)cc1 [Compound 3e, 4-Chlorobenzaldehyde Semicarbazone] | 22.3 ± 0.4 µM | > 100 µM | > 100 µM | 58.7 ± 0.97 µM | 33.9 ± 0.8 µM | > 100 µM | > 100 µM | > 100 µM | 235 to 236 °C | > 10 µM | > 10 µM | > 10 µM | > 10 µM | > 10 µM | > 10 µM | > 10 µM | > 10 µM | > 10 µM | > 10 µM | 
CC(C)(C)c1ccc(C=NNC(N)=O)cc1 [Compound 3h, 4-Tert-Butylbenzaldehyde Semicarbazone] | 42.9 ± 0.75 µM | > 100 µM | 47 ± 0.75 µM | > 100 µM | 58.4 ± 1.86 µM | 25.5 ± 1.9 µM | 48.8 ± 0.97 µM | 49.7 ± 1.06 µM | 216 to 218 °C | > 10 µM | > 10 µM | > 10 µM | > 10 µM | 1.9 µM | > 10 µM | > 10 µM | > 10 µM | > 10 µM | > 10 µM | 
COc1cccc2c1C(=O)c1c(O)c3c(c(O)c1C2=O)C[C@@](O)(C(=O)CO)C[C@@H]3O[C@H]1C[C@H](N)[C@H](O)[C@H](C)O1 [Doxo, doxorubicin, reference compound] | 1.28 ± 0.11 µM | 0.11 ± 0.01 µM | 0.73 ± 0.09 µM | 1.47 ± 0.09 µM | 0.2 ± 0.03 µM | 0.73 ± 0.08 µM | 0.18 ± 0.02 µM | 5.33 ± 0.62 µM |  |  |  |  |  |  |  |  |  |  |  | depolarized cells (HL-60 cells [3]): 41.8%; cells in initial apoptosis [Annexin V(+) and 7-AAD(−)] (HL-60 cells [4]): 23.7%; cells in late apoptosis [Annexin V(+) and 7-AAD(+)] (HL-60 cells [4]): 19%
